Experiments:
[1] = tested on: M2 macrophages; test: Flow cytometry of FITC-conjugated melittin on M0, M1 and M2 macrophages; type: cell-based, human; conditions: 50 nM FITC-conjugated melittin, 1 hour; THP-1 derived M0, M1, M2 macrophages
Experimental: To confirm whether the melittin fabricated in Example 1 specifically bound to M2 tumor-associated macrophages (M2 TAMs), a human monocyte cell line THP-1 was differentiated into M0, M1, and M2 macrophages, and treated with FITC-conjugated melittin, and then confirmed by flow cytometry. Specifically, THP-1 cells were treated with 100 nM phorbol 12-myristate 13-acetate (PMA) at 37° C. for 24 hours (M0 macrophages), and the differentiated M0 macrophages were incubated with 100 nM LPS and 20 ng/ml IFN-γ at 37° C. for 72 hours to be differentiated into M1 macrophages (M1), and incubated with 20 ng/ml IL-4 and IL-13 at 37° C. for 72 hours to be differentiated into M2 macrophages (M2). The differentiated cells were treated with 50 nM FITC-conjugated melittin for 1 hour, detected with BD FACS CantoII instruments (BD biosciences, San Jose, CA, USA), and analyzed with FlowJo software (BD biosciences).

[2] = tested on: M2 macrophages; test: CCK-8 cell viability in M2 macrophages (control, ITGB2 knockdown, ITGB2 antibody pretreatment); type: cell-based, human; conditions: Melittin-dKLA 1 μM, 24 hours
Experimental: As a cell model used to confirm whether apoptosis was induced through ITGB2 in M2 macrophages, a cell model in which the expression of ITGB2 was suppressed in M2 macrophages was fabricated using Crispr/cas9. Specifically, cells differentiated into M2 macrophages were cultured in an Opti-MEM medium. The Crispr/cas9 was mixed with Cas9 protein V2 (Thermo Fisher scientific) and gRNA (Genscript; ITGB2; Table 7) of a CRISPRMAX™ Reagent kit (Thermo Fisher scientific) and a Cas9 Plus™ Reagent (Thermo Fisher scientific), and a CRISPRMAX™ Reagent was diluted in the Opti-MEM medium, mixed together, and reacted for 5 to 10 minutes, and then added to cells differentiated into M2 macrophages and cultured at 37° C. for 2 to 3 days. Thereafter, the mRNA expression level of ITGB2 was confirmed.
To confirm whether Melittin-dKLA bound to ITGB2 to induce apoptosis in M2 macrophages, Melittin-dKLA (1 μM) was treated for 24 hours to M2 macrophages in which ITGB2 expression was suppressed by Crispr/cas9 fabricated in Example 7-1 above, and cell viability was analyzed using a CCK-8 assay. Specifically, Melittin-dKLA (1 μM) reacted with ITGB2 knockdown macrophages fabricated in Example 7-1 above for 1 hour. After the reaction, the medium was replaced and cultured at 37° C. for 24 hours. […] Absorbance was measured at 450 nm using a microplate reader (Molecular Devices). […]

Row | Compound | FITC-positive cells [1] | cell viability ([2]; M2 macrophages in which ITGB2 was knocked down (Crispr/cas9)) | cell viability ([2]; control M2 macrophages)
1 | CC[C@H](C)[C@H](NC(=O)CN)C(=O)NCC(=O)N[C@@H](C)C(=O)N[C@H](C(=O)N[C@@H](CC(C)C)C(=O)N[C@@H](CCCCN)C(=O)N[C@H](C(=O)N[C@@H](CC(C)C)C(=O)N[C@H](C(=O)N[C@H](C(=O)NCC(=O)N[C@@H](CC(C)C)C(=O)N1CCC[C@H]1C(=O)N[C@@H](C)C(=O)N[C@@H](CC(C)C)C(=O)N[C@H](C(=O)N[C@@H](CO)C(=O)N[C@@H](Cc1c[nH]c2ccccc12)C(=O)N[C@H](C(=O)N[C@@H](CCCCN)C(=O)N[C@@H](CCCNC(=N)N)C(=O)N[C@@H](CCCCN)C(=O)N[C@@H](CCCNC(=N)N)C(=O)N[C@@H](CCC(N)=O)C(=O)N[C@@H](CCC(N)=O)C(N)=O)[C@@H](C)CC)[C@@H](C)CC)[C@@H](C)O)[C@@H](C)O)C(C)C)C(C)C [melittin, Melittin] | significantly increased in M2 macrophages | – | –
2 | Peptide with linker and drug dKLA attached to melittin, SEQ ID NO: 5, GIGAVLKVLTTGLPALISWIKRKRQQ-GGGGS-d[KLAKLAKKLAKLAK] [Melittin-dKLA] | – | decrease in cell viability by Melittin-dKLA was suppressed | significantly reduced
